Marks after values point to notes of the source that are not given here.
Columns and labels:
[1] = tested on: chloroform-induced ventricular fibrillation in the mouse; test: Chloroform-induced ventricular fibrillation in the mouse (effect on vagal dysfunction), without and with atropine; assay type: in vivo; details: n = 10, untreated control 100%; for Proportion of fibrillation (in %) with atropine (1 mg/kg i.v.): plus atropine 1 mg/kg i.v.
Protocol: The substances were investigated using the model of chloroform-induced ventricular fibrillation in the mouse (see J. W. Lawson, Antiarrhythmic activity of some isoquinoline derivatives determined by a rapid screening procedure in the mouse; J. Pharmacol. Exp. Ther. 1968, 160, 22-31). […] After 30 minutes, the mouse was anesthetized with chloroform in a beaker. As soon as, in deep anesthesia, respiratory arrest had occurred (toxic anesthesia stage), the thorax of the animal was opened using a pair of scissors and the heartbeat was inspected visually. Here, it is possible to determine on first sight whether the heart is beating, fibrillating or arrested. The respiratory arrest triggered by chloroform leads, via absolute anoxia (lack of oxygen) in combination with a direct stimulating effect of chloroform on the sympathetic nervous system, to a potent stimulation of the sympathicus, which in turn in combination with the energy deficit in the heart caused by lack of oxygen results in fatal arrhythmia, i.e. ventricular fibrillation. This toxic chloroform anesthesia led to ventricular fibrillation in 100% of the untreated mice (control).

[2] = tested on: chloroform-induced ventricular fibrillation in the mouse; test: Chloroform-induced ventricular fibrillation in the mouse: combinations of compounds of the formula I with beta-receptor blockers; assay type: in vivo; details: n = 30, untreated control 100%
Protocol: The substances were investigated using the model of chloroform-induced ventricular fibrillation in the mouse (see J. W. Lawson, Antiarrhythmic activity of some isoquinoline derivatives determined by a rapid screening procedure in the mouse; J. Pharmacol. Exp. Ther. 1968, 160, 22-31). The test substance was dissolved in a mixture of dimethyl sulfoxide (DMSO) and 10% strength sodium bicarbonate solution and administered intraperitoneally (i.p.). After 30 minutes, the mouse was anesthetized with chloroform in a beaker. As soon as, in deep anesthesia, respiratory arrest had occurred (toxic anesthesia stage), the thorax of the animal was opened using a pair of scissors and the heartbeat was inspected visually. Here, it is possible to determine on first sight whether the heart is beating, fibrillating or arrested. The respiratory arrest triggered by chloroform leads, via absolute anoxia (lack of oxygen) in combination with a direct stimulating effect of chloroform on the sympathetic nervous system, to a potent stimulation of the sympathicus, which in turn in combination with the energy deficit in the heart caused by lack of oxygen results in fatal arrhythmia, i.e. ventricular fibrillation. This toxic chloroform anesthesia led to ventricular fibrillation in 100% of the untreated mice (control).
The active compounds were administered i.v. (intravenously) or i.p. (intraperitoneally). In one experiment, 10 mg/kg of 1-[[5-[2-(5-chloro-2-methoxybenzamido)ethyl]-2-methoxyphenyl]sulfonyl]-3-methylthiourea sodium salt (see Example 4; dissolved in DMSO/10% strength sodium bicarbonate solution) were combined with 0.3 mg/kg of propanolol (dissolved in distilled water), a standard beta-blocker. […] The proportion of fibrillation could be lowered further than with the individual substances, in a statistically significant manner. For comparison, a 10 times higher dose of 3 mg/kg of propanolol was used. […] In another experiment, 3 mg/kg of 1-[[5-[2-(5-tert-butyl-2-methoxybenzamido)ethyl]-2-methoxyphenyl]sulfonyl]-3-methylthiourea (Example 1) and 3 mg/kg of atenolol were combined in an analogous manner.

[3] = 3 mg/kg i.p., chloroform anesthesia after 30 minutes

In the case of CNC(=S)NS(=O)(=O)c1cc(CCNC(=O)c2cc(C(C)(C)C)ccc2OC)ccc1OC [Example 1, 1-[[5-[2-(5-tert-Butyl-2-methoxybenzamido)ethyl]-2-methoxyphenyl]sulfonyl]-3-methylthiourea], the “Proportion of fibrillation (in %) without atropine” value [1, 3] is reported as 30%#, the “Proportion of fibrillation (in %) with atropine (1 mg/kg i.v.)” value ([1]; 3 mg/kg i.p.) is reported as 90%* and the “Proportion of fibrillation in %” value ([2]; single substance 3 mg/kg i.p.) is reported as 53%*.

CC(C)NCC(O)COc1cccc2ccccc12 (stereo not drawn) [propranolol] was tested, and the “Proportion of fibrillation in %” value ([2]; single substance 0.3 mg/kg i.v.) was 37%* and the “Proportion of fibrillation in %” value ([2]; single substance 3 mg/kg i.v.) was 17%*.

CNC(=O)Oc1ccc2c(c1)[C@]1(C)CCN(C)[C@@H]1N2C [physostigmine, reference compound] was tested, and the “Proportion of fibrillation (in %) without atropine” value ([1]; 1 mg/kg s.c.) was 70%# and the “Proportion of fibrillation (in %) with atropine (1 mg/kg i.v.)” value ([1]; 1 mg/kg s.c.) was 100%*.

For C[N+](C)(C)CCOC(N)=O [carbachol, reference compound], the “Proportion of fibrillation (in %) without atropine” value ([1]; 60 μg/kg i.v.) was 60%# and the “Proportion of fibrillation (in %) with atropine (1 mg/kg i.v.)” value ([1]; 60 μg/kg i.v.) was 100%*.

With CNC(=S)NS(=O)(=O)c1cc(CCNC(=O)c2cc(Cl)ccc2OC)ccc1OCCOC [Example 5, 1-[[5-[2-(5-Chloro-2-methoxybenzamido)ethyl]-2-(2-methoxyethoxy)phenyl]sulfonyl]-3-methylthiourea] the “Proportion of fibrillation (in %) without atropine” value ([1]; 10 mg/kg i.p.) was 60%# and the “Proportion of fibrillation (in %) with atropine (1 mg/kg i.v.)” value ([1]; 10 mg/kg i.p.) was 100%*.

With CNC(=S)NS(=O)(=O)c1cc(CCNC(=O)c2cc(Cl)ccc2OC)ccc1OC.[Na] [1-[[5-[2-(5-chloro-2-methoxybenzamido)ethyl]-2-methoxyphenyl]sulfonyl]-3-methylthiourea sodium salt] the “Proportion of fibrillation (in %) without atropine” value ([1]; 10 mg/kg i.p.) was 50%#, the “Proportion of fibrillation (in %) with atropine (1 mg/kg i.v.)” value ([1]; 10 mg/kg i.p.) was 90%* and the “Proportion of fibrillation in %” value ([2]; single substance 10 mg/kg i.v.) was 50%*.

With CC(C)NCC(O)COc1ccc(CC(N)=O)cc1 (stereo not drawn) [atenolol] the “Proportion of fibrillation in %” value ([2]; single substance 3 mg/kg i.v.) was 48%*.

In the case of CNC(=O)NS(=O)(=O)c1cc(CCNC(=O)c2cc(C(C)(C)C)ccc2OC)ccc1OC [Example 2, 1-[[5-[2-(5-tert-Butyl-2-methoxybenzamido)ethyl]-2-methoxyphenyl]sulfonyl]-3-methylurea], the “Proportion of fibrillation (in %) without atropine” value ([1]; 1 mg/kg i.p.) is reported as 60%# and the “Proportion of fibrillation (in %) with atropine (1 mg/kg i.v.)” value ([1]; 1 mg/kg i.p.) is reported as 100%*.

For CNC(=S)NS(=O)(=O)c1cc(CCNC(=O)c2cc(C(C)C)ccc2OC)ccc1OC [Example 3, 1-[[5-[2-(5-lsopropyl-2-methoxybenzamido)ethyl]-2-methoxyphenyl]sulfonyl]-3-methylthiourea], the “Proportion of fibrillation (in %) without atropine” value [1, 3] was 60%#.

Reference: patent US6414030B1, “Use of benzenesulfonyl(thio)ureas for the treatment and prophylaxis of dysfunctions of the autonomous nervous system and use of benzenesulfonyl(thio)ureas in combination with beta-receptors blockers” (Aventis Pharma Deutschland, GmbH, priority 1998, dated 2002)
